From paper PMC7215574, “Development of Thiazolidinones as Fungal Carbonic Anhydrase Inhibitors” (International Journal of Molecular Sciences, 2020)
Converted amounts (≈) assume the structure as drawn.

Tested on: T1, C. albicans 5 strains
T1 construct: 5 clinical isolates
Test: microbe, parasite or virus in culture
Design: species or system clinical Candida isolates; broth microdilution antifungal MIC, visual growth inhibition, CLSI
Settings: Candida albicans, 24 h, read-out: Tested Fungi (MIC Values μg/mL) / C. albicans 5 strains
Experimental: (§1) The in vitro antifungal activities were determined by the broth microdilution method with sabouraud dextrose broth (BBL Microbiology Systems, Cockeysville, MD, USA), as recommended by the by the CLSI [43]. Ninety-six-well polystyrene microtitre plates containing serial dilutions of each compound were inoculated with each microorganism to yield the appropriate density (1–5 × 10^3 cells/mL) in a 100-μL final volume. Each plate included (i) fungi without the addition of the compound, (ii) just the medium, and (iii) just the compound. Topical and systemic antifungal reference drugs, clotrimazole and fluconazole, were inserted in the experiment. The plates were incubated for 24 h at 35 °C. […] Three independent experiments were performed in triplicate. The antimicrobial activity of these thiazolidinones was evaluated versus 24 clinical Gram-positive (S. aureus and S. epidermidis) and Gram-negative (E. coli and Enterobacter spp.) microorganisms. The antifungal activity of these derivatives was then tested versus 16 clinical fungal isolates belonging to the most relevant Candida spp. (C. albicans, C. tropicalis, C. parapsilosis, C. sakè, and C. glabrata). Prior to testing, each isolate was cultured on a selective medium to ensure purity and optimal growth, as previously reported. The isolates were routinely identified by the morphological aspects of colonies and by biochemical identification. The used clinical isolates were collected from specimens of patients at the ‘Azienda Policlinico Umberto I’ (Sapienza University of Rome) and were obtained from hematology/oncology and surgery departments, which also included an intensive care unit. In particular, the samples were isolated from the upper and lower respiratory tract, blood, and indwelling venous catheters; the isolates were identified by conventional methodologies. Participating subjects gave their written informed consent for this study.

Row | Compound | MIC
1 | COc1ccc(N2C(=O)CS/C2=N\NC(=O)C(O)c2ccccc2)cc1 (centres unmarked) [3m] | 8 to 32 µg/mL (≈ 21.5 to 86.2 µM)
2 | O=C(N/N=C1\SCC(=O)N1c1ccc([N+](=O)[O-])cc1)C(O)c1ccccc1 (centres unmarked) [3n] | 8 to 32 µg/mL (≈ 20.7 to 82.8 µM)
3 | O=C(N/N=C1\SCC(=O)N1c1cccc(C(F)(F)F)c1)C(O)c1ccccc1 (centres unmarked) [3o] | 16 to 32 µg/mL (≈ 39.1 to 78.2 µM)
4 | Cc1ccc(N2C(=O)C(C)S/C2=N\NC(=O)C(O)c2ccccc2)cc1 (centres unmarked) [4h] | 8 to 32 µg/mL (≈ 21.7 to 86.6 µM)
5 | COc1ccc(N2C(=O)C(C)S/C2=N\NC(=O)C(O)c2ccccc2)cc1 (centres unmarked) [4i] | 8 to 32 µg/mL (≈ 20.8 to 83 µM)
6 | CC1S/C(=N\NC(=O)C(O)c2ccccc2)N(c2ccc([N+](=O)[O-])cc2)C1=O (centres unmarked) [4j] | 8 to 32 µg/mL (≈ 20 to 79.9 µM)
7 | CC1S/C(=N\NC(=O)C(O)c2ccccc2)N(c2cccc(C(F)(F)F)c2)C1=O (centres unmarked) [4k] | 32 to 128 µg/mL (≈ 75.6 to 302 µM)

Tested on: T2, C. glabrata 3 strains
T2 construct: 3 clinical isolates
Test: microbe, parasite or virus in culture
Design: species or system clinical Candida isolates; broth microdilution antifungal MIC, visual growth inhibition, CLSI
Settings: Nakaseomyces glabratus, 24 h, read-out: Tested Fungi (MIC Values μg/mL) / C. glabrata 3 strains
Experimental: as §1

Row | Compound | MIC
8 | COc1ccc(N2C(=O)CS/C2=N\NC(=O)C(O)c2ccccc2)cc1 (centres unmarked) [3m] | 8 to 32 µg/mL (≈ 21.5 to 86.2 µM)
9 | O=C(N/N=C1\SCC(=O)N1c1ccc([N+](=O)[O-])cc1)C(O)c1ccccc1 (centres unmarked) [3n] | 8 to 32 µg/mL (≈ 20.7 to 82.8 µM)
10 | O=C(N/N=C1\SCC(=O)N1c1cccc(C(F)(F)F)c1)C(O)c1ccccc1 (centres unmarked) [3o] | 4 to 8 µg/mL (≈ 9.77 to 19.5 µM)
11 | Cc1ccc(N2C(=O)C(C)S/C2=N\NC(=O)C(O)c2ccccc2)cc1 (centres unmarked) [4h] | 8 to 32 µg/mL (≈ 21.7 to 86.6 µM)
12 | COc1ccc(N2C(=O)C(C)S/C2=N\NC(=O)C(O)c2ccccc2)cc1 (centres unmarked) [4i] | 8 to 32 µg/mL (≈ 20.8 to 83 µM)
13 | CC1S/C(=N\NC(=O)C(O)c2ccccc2)N(c2ccc([N+](=O)[O-])cc2)C1=O (centres unmarked) [4j] | 8 to 32 µg/mL (≈ 20 to 79.9 µM)
14 | CC1S/C(=N\NC(=O)C(O)c2ccccc2)N(c2cccc(C(F)(F)F)c2)C1=O (centres unmarked) [4k] | 8 to 32 µg/mL (≈ 18.9 to 75.6 µM)

Tested on: T3, Candida sake C. sakè 3 strains
T3 construct: 3 clinical isolates
Test: microbe, parasite or virus in culture
Design: species or system clinical Candida isolates; broth microdilution antifungal MIC, visual growth inhibition, CLSI
Settings: Fermentozyma sake, 24 h; read-out: Tested Fungi (MIC Values μg/mL) / C. sakè 3 strains
Experimental: as §1

Row | Compound | MIC
15 | COc1ccc(N2C(=O)CS/C2=N\NC(=O)C(O)c2ccccc2)cc1 (centres unmarked) [3m] | 8 to 32 µg/mL (≈ 21.5 to 86.2 µM)
16 | O=C(N/N=C1\SCC(=O)N1c1ccc([N+](=O)[O-])cc1)C(O)c1ccccc1 (centres unmarked) [3n] | 8 to 32 µg/mL (≈ 20.7 to 82.8 µM)
17 | O=C(N/N=C1\SCC(=O)N1c1cccc(C(F)(F)F)c1)C(O)c1ccccc1 (centres unmarked) [3o] | 4 to 8 µg/mL (≈ 9.77 to 19.5 µM)
18 | Cc1ccc(N2C(=O)C(C)S/C2=N\NC(=O)C(O)c2ccccc2)cc1 (centres unmarked) [4h] | 8 to 32 µg/mL (≈ 21.7 to 86.6 µM)
19 | COc1ccc(N2C(=O)C(C)S/C2=N\NC(=O)C(O)c2ccccc2)cc1 (centres unmarked) [4i] | 8 to 32 µg/mL (≈ 20.8 to 83 µM)
20 | CC1S/C(=N\NC(=O)C(O)c2ccccc2)N(c2ccc([N+](=O)[O-])cc2)C1=O (centres unmarked) [4j] | 8 to 32 µg/mL (≈ 20 to 79.9 µM)
21 | CC1S/C(=N\NC(=O)C(O)c2ccccc2)N(c2cccc(C(F)(F)F)c2)C1=O (centres unmarked) [4k] | 8 to 32 µg/mL (≈ 18.9 to 75.6 µM)

Molecular target: T4, CgNce103 (Nakaseomyces glabratus, UniProt Q6FTL6)
T4 construct: gene NCE103; recombinant, obtained in-house as previously reported; beta-class zinc enzyme
T4 sequence (Q6FTL6 1-219): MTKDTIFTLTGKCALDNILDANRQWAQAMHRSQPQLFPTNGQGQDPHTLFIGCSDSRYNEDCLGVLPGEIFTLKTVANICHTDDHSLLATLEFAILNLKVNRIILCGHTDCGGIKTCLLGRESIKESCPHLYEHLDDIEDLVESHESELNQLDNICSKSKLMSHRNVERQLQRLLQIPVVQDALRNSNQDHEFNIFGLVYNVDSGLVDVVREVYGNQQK
Test: stopped-flow CO2 hydrase assay
Format: biochemical
Settings: not given

Row | Compound | Ki
22 | COc1ccc(N2C(=O)CS/C2=N\NC(=O)C(O)c2ccccc2)cc1 (centres unmarked) [3m] | 0.39 µM
23 | O=C(N/N=C1\SCC(=O)N1c1cccc(C(F)(F)F)c1)C(O)c1ccccc1 (centres unmarked) [3o] | 0.12 µM
24 | Cc1ccc(N2C(=O)C(C)S/C2=N\NC(=O)C(O)c2ccccc2)cc1 (centres unmarked) [4h] | 0.09 µM
25 | COc1ccc(N2C(=O)C(C)S/C2=N\NC(=O)C(O)c2ccccc2)cc1 (centres unmarked) [4i] | 0.69 µM
26 | CC1S/C(=N\NC(=O)C(O)c2ccccc2)N(c2cccc(C(F)(F)F)c2)C1=O (centres unmarked) [4k] | 0.11 µM

Molecular target: not listed separately
Test: stopped-flow CO2 hydrase assay
Format: biochemical, Homo sapiens
Settings: read-out: hCA I

Row | Compound | Ki
27 | COc1ccc(N2C(=O)CS/C2=N\NC(=O)C(O)c2ccccc2)cc1 (centres unmarked) [3m] | > 100 µM
28 | Cc1ccc(N2C(=O)C(C)S/C2=N\NC(=O)C(O)c2ccccc2)cc1 (centres unmarked) [4h] | > 100 µM
29 | COc1ccc(N2C(=O)C(C)S/C2=N\NC(=O)C(O)c2ccccc2)cc1 (centres unmarked) [4i] | > 100 µM
30 | CC1S/C(=N\NC(=O)C(O)c2ccccc2)N(c2cccc(C(F)(F)F)c2)C1=O (centres unmarked) [4k] | > 100 µM

Tested on: T5, C. parapsilosis 2 strains
T5 construct: 2 clinical isolates
Test: microbe, parasite or virus in culture
Design: species or system clinical Candida isolates; CLSI broth microdilution MIC, Sabouraud dextrose broth, 35 °C, visual complete growth inhibition
Settings: Lodderomyces parapsilosis, 24 h, read-out: Tested Fungi (MIC Values μg/mL) / C. parapsilosis 2 strains
Experimental: as §1

Row | Compound | MIC
31 | COc1ccc(N2C(=O)CS/C2=N\NC(=O)C(O)c2ccccc2)cc1 (centres unmarked) [3m] | 32 µg/mL (≈ 86.2 µM)
32 | O=C(N/N=C1\SCC(=O)N1c1ccc([N+](=O)[O-])cc1)C(O)c1ccccc1 (centres unmarked) [3n] | 32 µg/mL (≈ 82.8 µM)
33 | O=C(N/N=C1\SCC(=O)N1c1cccc(C(F)(F)F)c1)C(O)c1ccccc1 (centres unmarked) [3o] | 32 µg/mL (≈ 78.2 µM)
34 | Cc1ccc(N2C(=O)C(C)S/C2=N\NC(=O)C(O)c2ccccc2)cc1 (centres unmarked) [4h] | 32 µg/mL (≈ 86.6 µM)
35 | COc1ccc(N2C(=O)C(C)S/C2=N\NC(=O)C(O)c2ccccc2)cc1 (centres unmarked) [4i] | 32 µg/mL (≈ 83 µM)
36 | CC1S/C(=N\NC(=O)C(O)c2ccccc2)N(c2ccc([N+](=O)[O-])cc2)C1=O (centres unmarked) [4j] | 32 µg/mL (≈ 79.9 µM)
37 | CC1S/C(=N\NC(=O)C(O)c2ccccc2)N(c2cccc(C(F)(F)F)c2)C1=O (centres unmarked) [4k] | 64 µg/mL (≈ 151 µM)

Tested on: T6, C. tropicalis 3 strains
T6 construct: 3 clinical isolates
Test: microbe, parasite or virus in culture
Design: species or system clinical Candida isolates; CLSI broth microdilution MIC, Sabouraud dextrose broth, 35 °C, visual complete growth inhibition
Settings: Candida tropicalis, 24 h, read-out: Tested Fungi (MIC Values μg/mL) / C. tropicalis 3 strains
Experimental: as §1

Row | Compound | MIC
38 | COc1ccc(N2C(=O)CS/C2=N\NC(=O)C(O)c2ccccc2)cc1 (centres unmarked) [3m] | 32 µg/mL (≈ 86.2 µM)
39 | O=C(N/N=C1\SCC(=O)N1c1ccc([N+](=O)[O-])cc1)C(O)c1ccccc1 (centres unmarked) [3n] | 32 µg/mL (≈ 82.8 µM)
40 | O=C(N/N=C1\SCC(=O)N1c1cccc(C(F)(F)F)c1)C(O)c1ccccc1 (centres unmarked) [3o] | 32 µg/mL (≈ 78.2 µM)
41 | Cc1ccc(N2C(=O)C(C)S/C2=N\NC(=O)C(O)c2ccccc2)cc1 (centres unmarked) [4h] | 16 µg/mL (≈ 43.3 µM)
42 | COc1ccc(N2C(=O)C(C)S/C2=N\NC(=O)C(O)c2ccccc2)cc1 (centres unmarked) [4i] | 16 µg/mL (≈ 41.5 µM)
43 | CC1S/C(=N\NC(=O)C(O)c2ccccc2)N(c2ccc([N+](=O)[O-])cc2)C1=O (centres unmarked) [4j] | 16 µg/mL (≈ 40 µM)
44 | CC1S/C(=N\NC(=O)C(O)c2ccccc2)N(c2cccc(C(F)(F)F)c2)C1=O (centres unmarked) [4k] | 128 µg/mL (≈ 302 µM)

Molecular target: T7, hCA II (Homo sapiens, UniProt P00918)
T7 construct: gene CA2; recombinant, obtained in-house as previously reported
Test: stopped-flow CO2 hydrase assay
Format: biochemical
Settings: not given
Excerpt: stopped-flow CO2 hydrase assay on hCA II

Row | Compound | Ki
45 | O=C(N/N=C1\SCC(=O)N1c1cccc(C(F)(F)F)c1)C(O)c1ccccc1 (centres unmarked) [3o] | 82.8 µM

Molecular target: T8, hCA I (Homo sapiens, UniProt P00915)
T8 construct: gene CA1; recombinant, obtained in-house as previously reported
T8 sequence (P00915 2-261): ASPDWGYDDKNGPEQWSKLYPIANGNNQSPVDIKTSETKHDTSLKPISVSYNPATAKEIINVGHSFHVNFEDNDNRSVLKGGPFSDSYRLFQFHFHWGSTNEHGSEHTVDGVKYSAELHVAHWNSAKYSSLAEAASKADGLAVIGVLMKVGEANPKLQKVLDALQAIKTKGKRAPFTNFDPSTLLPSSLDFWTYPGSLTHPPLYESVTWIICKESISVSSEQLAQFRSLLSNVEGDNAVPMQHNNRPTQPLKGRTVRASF
Test: stopped-flow CO2 hydrase assay
Format: biochemical
Settings: not given
Excerpt: stopped-flow CO2 hydrase assay on hCA I

Row | Compound | Ki
46 | COc1ccc(N2C(=O)CS/C2=N\NC(=O)C(O)c2ccccc2)cc1 (centres unmarked) [3m] | > 100 µM
47 | O=C(N/N=C1\SCC(=O)N1c1cccc(C(F)(F)F)c1)C(O)c1ccccc1 (centres unmarked) [3o] | > 100 µM
48 | Cc1ccc(N2C(=O)C(C)S/C2=N\NC(=O)C(O)c2ccccc2)cc1 (centres unmarked) [4h] | > 100 µM
49 | COc1ccc(N2C(=O)C(C)S/C2=N\NC(=O)C(O)c2ccccc2)cc1 (centres unmarked) [4i] | > 100 µM
50 | CC1S/C(=N\NC(=O)C(O)c2ccccc2)N(c2cccc(C(F)(F)F)c2)C1=O (centres unmarked) [4k] | > 100 µM
